Here are results for eleven compounds from article PMC11279465, “Dual Inhibitors of P-gp and Carbonic Anhydrase XII (hCA XII) against Tumor Multidrug Resistance with Piperazine Scaffold” (Molecules, 2024).

One may read the Ki as a dissociation constant, usually derived from enzyme kinetics or from competition with a known ligand. Lower therefore signals tighter binding.

The subject of one assay is HT29 cells. Nature of the assay: Intrinsic cytotoxicity (MTT). It is filed as cell-based, human. The conditions noted are these: compound alone at 1 µM; parental HT29; 48 h. On the procedure: (§1) All compounds were preliminarily studied to evaluate their intrinsic cytotoxicity at different concentrations (from 10 nM to 50 µM) in the parental HT29 and A549 and the resistant HT29/DOX and A549/DOX cells using the MTT assay.
(§2) The intrinsic toxicity of the studied compounds was determined by an MTT assay. K562 and K562/DOX were exposed for 72 h with compounds at 1 and 3 µM concentrations while HT29, A549, HT29/DOX and A549/DOX cells were incubated for 48 h with compounds used at different concentrations (from 10 nM to 50 µM). The percentage of growth compared to the untreated control was transformed into histograms with the GraphPad Prism 5 program.

A further assay has as its system A549 cells. Nature of the assay: Intrinsic cytotoxicity (MTT). The settings on record: compound alone at 1 µM; parental A549; 48 h. It is filed as cell-based, human. On the procedure:
as §1, §2

Another assay relates to A549/DOX cells. Nature of the assay: Intrinsic cytotoxicity (MTT). It counts as cell-based, human. The conditions noted are these: compound alone at 1 µM; A549/DOX; 48 h. On the procedure:
as §1
(§3) The intrinsic toxicity of the studied compounds was determined by an MTT assay. K562 and K562/DOX were exposed for 72 h with compounds at 1 and 3 µM concentrations while HT29, A549, HT29/DOX and A549/DOX cells were incubated for 48 h with compounds used at different concentrations (from 10 nM to 50 µM). The percentage of growth compared to the untreated control was transformed into histograms with the GraphPad Prism 5 program. […]

For assay [1], the system named is HT29/DOX cells. Nature of the assay: Intrinsic cytotoxicity (MTT). It counts as cell-based, human. The settings on record: compound alone at 1 µM; HT29/DOX; 48 h. As to the method:
as §1, §3

For another assay, the target named is T1, hCA XII (Homo sapiens, UniProt O43570).
T1 construct: made in house
Nature of the assay: CA inhibition, stopped-flow CO2 hydrase assay. The settings on record: stopped-flow technique; incubation time 6 h; mean of 3 assays. It is filed as biochemical. As to the method:
(§4) Four hCA isoforms were used in this assay: the cytosolic hCA I and II and the tumor-associated transmembrane hCA IX and XII isoforms. Acetazolamide (AAZ) was used as a standard inhibitor.
(§5) An SX.18MV-R Applied Photophysics (Oxford, UK) stopped-flow instrument has been used to assay the catalytic/inhibition of various CA isozymes. […] Saturated CO2 solutions in water at 25 °C were used as substrate. Stock solutions of inhibitors were prepared at a concentration of 10 μM (in DMSO-water 1:1, v/v) and dilutions up to 0.01 nM were carried out with the assay buffer mentioned above. […] Inhibitor and enzyme solutions were preincubated together for 6 h at room temperature prior to assay in order to allow for the formation of the E-I complex. […] The inhibition constants were obtained by non-linear least-squares methods using the Cheng–Prusoff equation, as reported earlier, and represent the mean from at least three different determinations.

In the next assay the target is T2, hCA II (Homo sapiens, UniProt P00918).
T2 construct: made in house
Nature of the assay: CA inhibition, stopped-flow CO2 hydrase assay. It counts as biochemical. The conditions noted are these: stopped-flow technique; incubation time 6 h; mean of 3 assays. As to the method:
as §4, §5

The target of another assay is T3, hCA I (Homo sapiens, UniProt P00915).
T3 construct: made in house
Nature of the assay: CA inhibition, stopped-flow CO2 hydrase assay. It counts as biochemical. The settings on record: stopped-flow technique; incubation time 6 h; mean of 3 assays. On the procedure: as §4, §5

For a further assay, the target named is T4, hCA IX (Homo sapiens, UniProt Q16790).
T4 construct: made in house
Nature of the assay: CA inhibition, stopped-flow CO2 hydrase assay. The settings on record: stopped-flow technique; incubation time 6 h; mean of 3 assays. It counts as biochemical. As to the method: as §4, §5

Assay [2] has as its system HT29/DOX cells. Nature of the assay: Doxorubicin co-administration assay (MTT). It counts as cell-based, human. The conditions noted are these: compound at 3 µM + doxorubicin 5 µM, 48 h. On the procedure:
These compounds were then assayed at 1 and 3 µM concentrations in co-administration with doxorubicin at a concentration of 5 µM, which is known to discriminate well between sensitive and resistant cells. […] Moreover, in the A549/DOX cell line, the co-administration of 1, 2, 4–6, 14 and 19, tested at 3 µM, led to the highest enhancement of doxorubicin toxicity reaching a reduction of nearly 55.0% in cell viability.
K562/DOX cells were incubated for 72 h with different concentrations of doxorubicin in combination with 1 or 3 µM of all compounds. IC50 was the concentration killing 50% of cells and was determined graphically from relative survival curves obtained by GraphPad Prism 5 software (GraphPad, San Diego, CA, USA). HT29, A549, HT29/DOX and A549/DOX cells were incubated for 48 h with 5 µM doxorubicin, alone or in combination with 1 or 3 µM of selected compounds. Cell viability of the cell lines was measured by the MTT assay, using a Synergy HT microplate spectrofluorometer (Bio-Tek Instruments, Winooski, VT, USA). The absorbance of untreated cells was considered 100%; results were expressed as a percentage of viable treated cells versus the control untreated cells.

The test system of a further assay is K562/DOX cells. Nature of the assay: Doxorubicin cytotoxicity enhancement assay (MTT). It is filed as cell-based, human. The conditions noted are these: 72 h. On the procedure:
K562 is a highly undifferentiated erythroleukemia cell line. The doxorubicin-resistant K562/DOX cells overexpress almost exclusively the transporter membrane protein P-gp.
K562/DOX cells were incubated for 72 h with different concentrations of doxorubicin in combination with 1 or 3 µM of all compounds. […] HT29, A549, HT29/DOX and A549/DOX cells were incubated for 48 h with 5 µM doxorubicin, alone or in combination with 1 or 3 µM of selected compounds. Cell viability of the cell lines was measured by the MTT assay, using a Synergy HT microplate spectrofluorometer (Bio-Tek Instruments, Winooski, VT, USA). The absorbance of untreated cells was considered 100%; results were expressed as a percentage of viable treated cells versus the control untreated cells.

T1 sequence (O43570 25-354): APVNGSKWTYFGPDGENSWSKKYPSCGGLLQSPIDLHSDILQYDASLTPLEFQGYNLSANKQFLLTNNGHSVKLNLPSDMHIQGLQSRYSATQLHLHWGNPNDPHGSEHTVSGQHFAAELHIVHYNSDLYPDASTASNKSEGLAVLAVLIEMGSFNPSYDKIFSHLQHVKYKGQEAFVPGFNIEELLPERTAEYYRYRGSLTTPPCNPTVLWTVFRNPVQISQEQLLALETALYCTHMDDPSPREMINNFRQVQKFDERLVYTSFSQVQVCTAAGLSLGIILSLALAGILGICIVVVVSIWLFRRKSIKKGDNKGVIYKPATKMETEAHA
T3 sequence (P00915 whole entry): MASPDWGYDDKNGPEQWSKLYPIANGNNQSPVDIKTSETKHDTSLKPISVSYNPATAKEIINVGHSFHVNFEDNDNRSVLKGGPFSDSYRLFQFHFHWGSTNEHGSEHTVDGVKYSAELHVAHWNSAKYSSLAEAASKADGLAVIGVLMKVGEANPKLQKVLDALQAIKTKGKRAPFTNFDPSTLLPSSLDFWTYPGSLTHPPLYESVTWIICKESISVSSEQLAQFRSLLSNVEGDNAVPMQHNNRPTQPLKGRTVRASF

Turning to `COc1ccc(C(CCCN2CCN(CCCCOc3ccc4oc(=O)cc(C)c4c3)CC2)c2ccc(OC)cc2)cc1` [Compound 36, 6-(4-(4-(4,4-Bis(4-methoxyphenyl)butyl)piperazin-1-yl)butoxy)-4-methyl-2H-chromen-2-one], the toxicity in the assay on HT29 cells, with A549 cells, with A549/DOX cells and in the assay with HT29/DOX cells [1] was at least 35% each time. The Ki at hCA XII is 298 nM; at hCA II it was over 10000 nM; at hCA I, over 10000 nM; on hCA IX it was 332 nM.

`COc1cc(/C=C/CN2CCN(CCCOc3ccc4c(C)cc(=O)oc4c3)CC2)cc(OC)c1OC` [Compound 5, (E)-4-Methyl-7-(3-(4-(3-(3,4,5-trimethoxyphenyl)allyl)piperazin-1-yl)propoxy)-2H-chromen-2-one]: the “reduction in cell viability” value in the assay with HT29/DOX cells [2] was found to be 65.0%. The “RF (Reversal Fold: IC50 of doxorubicin alone / in presence of modulator)” value with K562/DOX cells (compound at 1 µM) is on record as 5.5; in the assay on K562/DOX cells (compound at 3 µM), 27.6. The Ki at hCA XII was 27.2 nM; on hCA II, over 10000 nM; at hCA I, over 10000 nM; at hCA IX, 34.7 nM.

On to `COc1cc(/C=C/CN2CCN(CCCOc3ccc4oc(=O)ccc4c3)CC2)cc(OC)c1OC` [Compound 8, (E)-6-(3-(4-(3-(3,4,5-Trimethoxyphenyl)allyl)piperazin-1-yl)propoxy)-2H-chromen-2-one], for which the toxicity in the assay with A549/DOX cells and in the assay with HT29/DOX cells [1] was at least 35% each time. For the same compound, the “RF (Reversal Fold: IC50 of doxorubicin alone / in presence of modulator)” value in the assay on K562/DOX cells (compound at 1 µM) and in the assay with K562/DOX cells (compound at 3 µM) was 2.0 each time. Moreover, the inhibition constant (Ki) was 22.9 nM at hCA XII, over 10000 nM at hCA II, over 10000 nM on hCA I and 40.7 nM on hCA IX.

For the compound `COc1cc(/C=C/CN2CCN(CCCCOc3ccc4oc(=O)cc(C)c4c3)CC2)cc(OC)c1OC` [Compound 12, (E)-4-Methyl-6-(4-(4-(3-(3,4,5-trimethoxyphenyl)allyl)piperazin-1-yl)butoxy)-2H-chromen-2-one], the toxicity in the assay on HT29 cells, in the assay on A549 cells, in the assay on A549/DOX cells and in the assay with HT29/DOX cells [1] was at least 35% each time. The “RF (Reversal Fold: IC50 of doxorubicin alone / in presence of modulator)” value came out at 1.9 in the assay with K562/DOX cells (compound at 1 µM) and 2.7 in the assay with K562/DOX cells (compound at 3 µM). The Ki is 140 nM on hCA XII, over 10000 nM at hCA II, over 10000 nM on hCA I and 104 nM at hCA IX.

As for `COc1ccc(C(CCCN2CCN(CCCOc3ccc4ccc(=O)oc4c3)CC2)c2ccc(OC)cc2)cc1` [Compound 26, 7-(3-(4-(4,4-Bis(4-methoxyphenyl)butyl)piperazin-1-yl)propoxy)-2H-chromen-2-one], the results for the “RF (Reversal Fold: IC50 of doxorubicin alone / in presence of modulator)” value in the assay on K562/DOX cells (compound at 1 µM) and with K562/DOX cells (compound at 3 µM) were 5.5 and 17.3, respectively. Moreover, the Ki at hCA XII is 115 nM; at hCA II, over 10000 nM; at hCA I, over 10000 nM; at hCA IX, 153 nM.

`COc1cc(CN2CCN(CCCCOc3ccc4ccc(=O)oc4c3)CC2)cc(OC)c1OC` [Compound 15, 7-(4-(4-(3,4,5-Trimethoxybenzyl)piperazin-1-yl)butoxy)-2H-chromen-2-one]: the toxicity in the assay with A549/DOX cells and in the assay with HT29/DOX cells [1] was at least 35% each time. Besides, the “RF (Reversal Fold: IC50 of doxorubicin alone / in presence of modulator)” value was 1.2 in the assay on K562/DOX cells (compound at 1 µM) and 2.3 with K562/DOX cells (compound at 3 µM). Further, the inhibition constant (Ki) was 42.9 nM on hCA XII, over 10000 nM at hCA II, over 10000 nM at hCA I and 29 nM at hCA IX.

Regarding `COc1cc(/C=C/CN2CCN(CCOc3ccc4oc(=O)cc(C)c4c3)CC2)cc(OC)c1OC` [Compound 10, (E)-4-Methyl-6-(2-(4-(3-(3,4,5-trimethoxyphenyl)allyl)piperazin-1-yl)ethoxy)-2H-chromen-2-one], the figures for the “RF (Reversal Fold: IC50 of doxorubicin alone / in presence of modulator)” value with K562/DOX cells (compound at 1 µM) and with K562/DOX cells (compound at 3 µM) were 1.0 and 1.4, respectively. Besides, the Ki on hCA XII is 422 nM; at hCA II it was over 10000 nM; on hCA I, over 10000 nM; at hCA IX it was 360 nM.

Take `COc1cc(/C=C/CN2CCN(CCOc3ccc4c(C)cc(=O)oc4c3)CC2)cc(OC)c1OC` [Compound 4, (E)-4-Methyl-7-(2-(4-(3-(3,4,5-trimethoxyphenyl)allyl)piperazin-1-yl)ethoxy)-2H-chromen-2-one]: in the assay with HT29/DOX cells [2], the “reduction in cell viability” value is 65.0%. Besides, the “RF (Reversal Fold: IC50 of doxorubicin alone / in presence of modulator)” value in the assay on K562/DOX cells (compound at 1 µM) is reported as 5.7; in the assay with K562/DOX cells (compound at 3 µM), 15.8. The Ki is 32.8 nM on hCA XII, over 10000 nM on hCA II, over 10000 nM on hCA I and 25.2 nM on hCA IX.

Turning to `COc1ccc(C(CCCN2CCN(CCOc3ccc4oc(=O)cc(C)c4c3)CC2)c2ccc(OC)cc2)cc1` [Compound 34, 6-(2-(4-(4,4-Bis(4-methoxyphenyl)butyl)piperazin-1-yl)ethoxy)-4-methyl-2H-chromen-2-one], the “RF (Reversal Fold: IC50 of doxorubicin alone / in presence of modulator)” value with K562/DOX cells (compound at 1 µM) is 5.7; in the assay on K562/DOX cells (compound at 3 µM) it was 14.3. In addition, the Ki at hCA XII is 851 nM; on hCA II, over 10000 nM; at hCA I it was over 10000 nM; on hCA IX, 666 nM.

Take `COc1ccc(C(CCCN2CCN(CCCOc3ccc4oc(=O)cc(C)c4c3)CC2)c2ccc(OC)cc2)cc1` [Compound 35, 6-(3-(4-(4,4-Bis(4-methoxyphenyl)butyl)piperazin-1-yl)propoxy)-4-methyl-2H-chromen-2-one]: the toxicity in the assay with HT29 cells, with A549 cells, in the assay on A549/DOX cells and in the assay with HT29/DOX cells [1] was at least 35% in each case. Also, in the assay on K562/DOX cells (compound at 3 µM), the “RF (Reversal Fold: IC50 of doxorubicin alone / in presence of modulator)” value came out at 14.3. The Ki was 335 nM on hCA XII, over 10000 nM at hCA II, over 10000 nM at hCA I and 523 nM at hCA IX.

For `COc1ccc(C(CCCN2CCN(CCCOc3ccc4c(C)cc(=O)oc4c3)CC2)c2ccc(OC)cc2)cc1` [Compound 29, 7-(3-(4-(4,4-Bis(4-methoxyphenyl)butyl)piperazin-1-yl)propoxy)-4-methyl-2H-chromen-2-one], the toxicity in the assay on HT29 cells, in the assay on A549 cells, in the assay with A549/DOX cells and in the assay on HT29/DOX cells [1] was at least 35% in each case. The Ki at hCA XII was 91.5 nM; at hCA II, over 10000 nM; at hCA I it was over 10000 nM; on hCA IX, 149 nM.
